We go through 8 molecules from publication PMC9610855, “Valorisation of the Inhibitory Potential of Fresh and Dried Fruit Extracts of Prunus spinosa L. towards Carbohydrate Hydrolysing Enzymes, Protein Glycation, Multiple Oxidants and Oxidative Stress-Induced Changes in Human Plasma Constituents” (Pharmaceuticals, 2022).

One experiment deals with T1, α-amylase (Sus scrofa, UniProt P00690).
T1 construct: pancreatin from porcine pancreas; purchased Sigma-Aldrich; host or cells: porcine pancreas extract (pancreatin)
T1 sequence (P00690 16-511): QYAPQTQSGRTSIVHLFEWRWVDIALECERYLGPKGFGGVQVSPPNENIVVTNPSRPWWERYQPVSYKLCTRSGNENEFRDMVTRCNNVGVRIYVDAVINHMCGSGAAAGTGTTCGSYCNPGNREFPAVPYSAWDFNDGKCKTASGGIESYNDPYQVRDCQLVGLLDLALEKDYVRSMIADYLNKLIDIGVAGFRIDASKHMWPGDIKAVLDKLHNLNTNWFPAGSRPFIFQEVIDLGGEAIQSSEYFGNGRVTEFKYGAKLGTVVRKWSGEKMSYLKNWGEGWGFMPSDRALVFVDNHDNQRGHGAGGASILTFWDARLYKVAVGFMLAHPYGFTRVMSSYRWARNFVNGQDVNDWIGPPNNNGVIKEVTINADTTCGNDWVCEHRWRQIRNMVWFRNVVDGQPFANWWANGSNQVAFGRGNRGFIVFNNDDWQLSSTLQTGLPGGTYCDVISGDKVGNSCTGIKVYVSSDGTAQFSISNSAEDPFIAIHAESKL
The experiment in a line: α-amylase inhibition assay (EnzChek Ultra Amylase Assay Kit, fluorometric). Type of experiment: biochemical. To be noted: mean ± SD (n = 3). On the procedure: The inhibitory activity of the analytes towards α-amylase was determined fluorometrically according to Truba et al. using an EnzChek™ Ultra Amylase Assay Kit. The test was based on measuring products formed after the enzymatically catalysed hydrolysis of the corn starch substrate DQTM (labeled with the fluorescent dye BODIPY® FL). The fluorescence of the hydrolysate was read at 37 °C in a microplate reader at 485 nm and 535 nm for excitation and emission, respectively. […] The inhibitory potential of the analytes towards α-amylase was expressed as a half inhibitory concentration (IC50), calculated from concentration-inhibition curves.

Experiment [1] deals with AGEs formation (protein glycation, fructose-BSA). The experiment in a line: inhibition of AGEs formation, fructose-bovine serum albumin (BSA) test system. To be noted: mean ± SD (n = 3). On the procedure: The impact of the extracts/fractions on protein glycation was evaluated in the fructose-bovine serum albumin (BSA) test system with aminoguanidine as a positive control according to the fluorimetric method of Starowicz and Zieliński, modified by Rutkowska et al.. The fluorescence was measured at 37 °C in a microplate reader at 355 nm and 420 nm for excitation and emission, respectively. The results were reported as half inhibitory concentration (IC50) values, estimated using concentration-inhibition curves.

The nature of a further experiment: O2^•− scavenging. The note with it: mean ± SD of three replicates. The protocol: (§1) The scavenging efficiency of P. spinosa fruit extracts/fractions towards various ROS (O2^•−, HO^•, H2O2, HOCl, and NO^•) was tested using appropriate fluorimetric and spectrophotometric methods as described previously. Ascorbic acid and Trolox® served as positive controls. The results were expressed as half scavenging concentration (SC50) values, estimated using concentration-scavenging curves.

A short description of the next experiment: HOCl scavenging. To be noted: mean ± SD of three replicates. The protocol:
as §1

Another experiment in a line: H2O2 scavenging. To be noted: mean ± SD of three replicates. On the procedure:
as §1

Another experiment can be described thus: NO^• scavenging. The note with it: mean ± SD of three replicates. On the procedure: as §1
A further experiment in a line: HO^• scavenging. The note with it: mean ± SD of three replicates. On the procedure:
as §1

The subject of a further experiment is human neutrophils. The arrangement: method as in PMID 35630778. The note with it: 50 μM; cited from earlier work.
Another experiment deals with α-glucosidase. The experiment in a line: α-glucosidase inhibition assay (p-NPG hydrolysis, spectrophotometric). To be noted: mean ± SD (n = 3). Type of experiment: biochemical. On the procedure:
The inhibition of α-glucosidase was evaluated according to the spectrophotometric method reported by Ma et al. with slight modifications. The enzyme activity measurement was based on the p-nitrophenyl-α-D-glucopyranoside (p-NPG) hydrolysis. In brief, 150 µL of a phosphate buffer (0.1 M, pH 6.9) solution of an extract or standard was mixed with the enzyme (0.43 U/mL, 50 µL) and pre-incubated for 15 min at 37 °C. Next, a 0.7 mM p-NPG solution in the buffer (50 µL) was added, and after 15 min of incubation, the reaction was stopped by adding Na2CO3 (0.2 M, 50 µL). Finally, the absorbance was read at 405 nm in a microplate reader. […] The inhibitory potential of the analytes towards α-glucosidase was expressed as a half inhibitory concentration (IC50), calculated from concentration-inhibition curves.

Experiment [2] concerns human plasma lipids (TBARS). The experiment in a line: lipid peroxidation (TBARS) in human plasma exposed to ONOO^−. To be noted: 5 μg/mL, compared with the other standard polyphenols. On the procedure: Therefore, to check the potential preventive effects of P. spinosa fruit extracts against oxidative and nitrative injury of biomolecules, an experimental model of human blood plasma exposed to oxidative stress induced by ONOO^− (100–150 μM; achievable locally in vivo, e.g., in inflamed blood vessels) was applied. The process was monitored by measuring the oxidative stress biomarkers, including the products of protein nitration (3-nitrotyrosine, 3-NT), lipid peroxidation (thiobarbituric acid reactive substances, TBARS), as well as the total antioxidant capacity of plasma (NEAC). The extracts and fractions from fresh sloes were selected for the study due to their high ability to inhibit glycolytic enzymes, potent anti-glycation activity, and significant ROS/RNS-scavenging properties. […] The influence on the levels of oxidative stress biomarkers in plasma was evaluated using the appropriate immunoenzymatic and spectrophotometric methods. […] The results were calculated using the standard curve of nitro-fibrinogen (3-NT-Fg) and expressed as 3-NT-Fg equivalents (nmol/mg of plasma proteins). The TBARS levels of plasma lipids were determined spectrophotometrically and calculated in nmol/mL of plasma. The impact on the NEAC value was measured using the FRAP assay, with the results calculated from the standard curve of ferrous sulphate and expressed in mM of Fe^2+ equivalents.

Take `O=C(/C=C/c1ccc(O)c(O)c1)O[C@@H]1C[C@](O)(C(=O)O)C[C@@H](O)[C@H]1O` [Chlorogenic acid, 5-O-caffeoylquinic acid]: inhibition at α-amylase was half-maximal at 229 µM (IC50). Also, the “AGEs Formation IC50” value in experiment [1] is given as 7.07 ± 0.74 ^A µg/mL.

For `N=C(N)NN` [Aminoguanidine, aminoguanidine], the “AGEs Formation IC50” value in experiment [1] is 78.89 ± 4.95 ^C µg/mL.

For the molecule `O=C1O[C@H]([C@@H](O)CO)C(O)=C1O` [Ascorbic acid, ascorbic acid], the “Scavenging activity (SC50) O2^•−” value in the experiment “O2^•− scavenging” is recorded as 5.28 ± 0.25 ^A µg/mL. Also, the “Scavenging activity (SC50) HOCl” value in the experiment “HOCl scavenging” was 6.32 ± 0.07 ^A µg/mL. Also, the “Scavenging activity (SC50) H2O2” value in the experiment “H2O2 scavenging” is 0.014 ± 0.001 ^A,B mg/mL. The “Scavenging activity (SC50) NO^•” value in the experiment “NO^• scavenging” is on record as 0.59 ± 0.04 ^A µg/mL. Also, in the experiment “HO^• scavenging”, the “Scavenging activity (SC50) HO^•” value is 0.14 ± 0.005 ^B,C mg/mL.

As for `O=c1c(O)c(-c2ccc(O)c(O)c2)oc2cc(O)cc(O)c12` [Quercetin, quercetin], the “Scavenging activity (SC50) O2^•−” value in the experiment “O2^•− scavenging” is listed as 7.89 ± 0.24 ^A µg/mL. In addition, the “downregulation (reduction) of the ROS level in human neutrophils” value in the experiment on human neutrophils is on record as 96%. For the same molecule, in “HOCl scavenging”, the “Scavenging activity (SC50) HOCl” value is recorded as 2.08 ± 0.14 ^A µg/mL. Moreover, in “H2O2 scavenging”, the “Scavenging activity (SC50) H2O2” value is on record as 0.008 ± 0.001 ^A mg/mL. Further, in “NO^• scavenging”, the “Scavenging activity (SC50) NO^•” value is reported as 0.48 ± 0.03 ^A µg/mL. Besides, the “Scavenging activity (SC50) HO^•” value in the experiment “HO^• scavenging” is 0.05 ± 0.002 ^A mg/mL.

`O=Cc1ccc(CO)o1` [5-Hydroxymethylfurfural (HMF), 5-hydroxymethylfurfural]: in the experiment “O2^•− scavenging”, the “Scavenging activity (SC50) O2^•−” value was “** (inactive up to a concentration of 500 µg/mL)”. The “downregulation (reduction) of the ROS level in human neutrophils” value in the experiment on human neutrophils was 15%. Also, the “α-Glucosidase IC50” value on α-glucosidase is “** (inactive up to 1000 µg/mL)”. The “Scavenging activity (SC50) HOCl” value in “HOCl scavenging” is “** (inactive up to a concentration of 500 µg/mL)”. Further, the “Scavenging activity (SC50) H2O2” value in “H2O2 scavenging” is “*** (inactive up to 1500 µg/mL)”. Also, the “Scavenging activity (SC50) NO^•” value in the experiment “NO^• scavenging” is “** (inactive up to a concentration of 500 µg/mL)”. The “Scavenging activity (SC50) HO^•” value in the experiment “HO^• scavenging” was “*** (inactive up to 1500 µg/mL)”.

Regarding `Cc1c(C)c2c(c(C)c1O)CCC(C)(C(=O)O)O2` (stereo not shown) [Trolox], in “O2^•− scavenging”, the “Scavenging activity (SC50) O2^•−” value was 135.33 ± 5.59 ^F µg/mL. Besides, the “Scavenging activity (SC50) HOCl” value in the experiment “HOCl scavenging” is 21.49 ± 1.21 ^C µg/mL. Besides, in “H2O2 scavenging”, the “Scavenging activity (SC50) H2O2” value was 0.020 ± 0.001 ^B mg/mL. Further, in “NO^• scavenging”, the “Scavenging activity (SC50) NO^•” value is reported as 0.59 ± 0.02 ^A µg/mL. Besides, the “Scavenging activity (SC50) HO^•” value in “HO^• scavenging” was 0.13 ± 0.003 ^B,C mg/mL.

As to `O=c1c(O[C@@H]2O[C@H](CO)[C@@H](O)[C@H](O)[C@H]2O)c(-c2ccc(O)c(O)c2)oc2cc(O)cc(O)c12` [Quercetin 3-O-glucoside (isoquercitrin), quercetin 3-O-β-D-glucopyranoside], at α-glucosidase, the “α-Glucosidase IC50” value is listed as 209.64 ± 5.64 ^G µg/mL. Also, the “AGEs Formation IC50” value in experiment [1] is recorded as 3.09 ± 0.17 ^A µg/mL.

Regarding `OC[C@H]1O[C@@H](Oc2cc3c(O)cc(O)cc3[o+]c2-c2ccc(O)c(O)c2)[C@H](O)[C@@H](O)[C@@H]1O` [Cyanidin 3-O-glucoside, cyanidin 3-O-β-D-glucopyranoside], the “Scavenging activity (SC50) O2^•−” value in “O2^•− scavenging” was 10.11 ± 0.33 ^A µg/mL. Also, the “α-Glucosidase IC50” value at α-glucosidase is given as 635.13 ± 34.43 ^H µg/mL. The “Scavenging activity (SC50) HOCl” value in “HOCl scavenging” is reported as 5.62 ± 0.11 ^A µg/mL. The “activity of model polyphenol in the TBARS test” value in experiment [2] was “especially active”. In addition, the “α-Amylase IC50” value on α-amylase is 31.28 ± 1.66 ^B µg/mL. Besides, the “AGEs Formation IC50” value in [1] is 10.90 ± 0.85 ^A µg/mL. Also, in the experiment “H2O2 scavenging”, the “Scavenging activity (SC50) H2O2” value is given as 0.012 ± 0.001 ^A,B mg/mL. Also, the “Scavenging activity (SC50) NO^•” value in the experiment “NO^• scavenging” is 1.40 ± 0.09 ^B µg/mL. Moreover, the “Scavenging activity (SC50) HO^•” value in the experiment “HO^• scavenging” was 0.17 ± 0.002 ^C mg/mL.
